Source: ChEMBL document CHEMBL1145407, “Structure-activity relationships of alpha-ketooxazole inhibitors of fatty acid amide hydrolase” (J Med Chem, 2007)

Tests used:
[1] = Selectivity for rat recombinant FAAH over TGH
[2] = Selectivity for rat recombinant FAAH over KIAA1363
[3] = target: T1, Fatty-acid amide hydrolase 1 (Rattus norvegicus, UniProt P97612); experiment: Inhibition of rat recombinant FAAH expressed in Escherichia coli
T1 sequence (P97612 whole entry): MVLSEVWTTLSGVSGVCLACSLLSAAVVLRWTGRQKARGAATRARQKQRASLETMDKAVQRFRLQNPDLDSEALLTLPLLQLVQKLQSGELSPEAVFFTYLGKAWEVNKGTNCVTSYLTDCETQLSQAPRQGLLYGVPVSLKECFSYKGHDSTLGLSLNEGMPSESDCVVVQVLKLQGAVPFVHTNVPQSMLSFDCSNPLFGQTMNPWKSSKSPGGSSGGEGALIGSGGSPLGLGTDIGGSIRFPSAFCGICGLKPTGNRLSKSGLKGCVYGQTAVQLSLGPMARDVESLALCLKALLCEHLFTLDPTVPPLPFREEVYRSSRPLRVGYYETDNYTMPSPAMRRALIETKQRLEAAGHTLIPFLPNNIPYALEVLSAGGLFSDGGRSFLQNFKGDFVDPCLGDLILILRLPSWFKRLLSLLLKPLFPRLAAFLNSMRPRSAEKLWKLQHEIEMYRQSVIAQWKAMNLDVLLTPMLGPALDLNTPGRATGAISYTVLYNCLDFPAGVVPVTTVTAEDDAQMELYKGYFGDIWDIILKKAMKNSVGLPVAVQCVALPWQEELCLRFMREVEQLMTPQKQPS

[4] = target: T2, Fatty-acid amide hydrolase 1 (Homo sapiens, UniProt O00519); experiment: Inhibition of human FAAH expressed in COS-7 cells
T2 sequence (O00519 whole entry): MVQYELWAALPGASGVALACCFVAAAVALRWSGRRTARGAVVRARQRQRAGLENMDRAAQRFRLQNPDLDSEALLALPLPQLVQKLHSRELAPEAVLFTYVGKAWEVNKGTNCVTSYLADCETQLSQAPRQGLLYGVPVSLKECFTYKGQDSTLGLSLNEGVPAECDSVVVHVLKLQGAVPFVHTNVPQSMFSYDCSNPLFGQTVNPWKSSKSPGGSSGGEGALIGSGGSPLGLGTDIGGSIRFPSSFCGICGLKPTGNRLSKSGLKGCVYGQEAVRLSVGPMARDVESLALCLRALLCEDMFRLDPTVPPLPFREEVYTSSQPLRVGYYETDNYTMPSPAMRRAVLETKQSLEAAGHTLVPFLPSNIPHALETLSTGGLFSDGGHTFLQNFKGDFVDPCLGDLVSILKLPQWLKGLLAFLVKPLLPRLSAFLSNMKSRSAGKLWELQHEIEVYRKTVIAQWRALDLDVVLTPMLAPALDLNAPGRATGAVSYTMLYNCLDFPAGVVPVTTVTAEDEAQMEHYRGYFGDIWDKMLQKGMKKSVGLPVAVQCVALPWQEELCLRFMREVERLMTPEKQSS

Ratio IC50 [1]	Ratio IC50 [2]	Ki [3] [nM]	Ki [4] [nM]	Selectivity ratio [2]	Structure (SMILES)
230	> 3300	4	–	–	O=C(CCCCCCc1ccccc1C(F)(F)F)c1ncc(-c2ccccn2)o1
130	7000	–	–	–	O=C(CCc1ccc(OCc2ccccc2)cc1)c1nc2ncccc2o1
25000	> 250000	1	–	–	COC(=O)c1ccccc1CCCCCCC(=O)c1ncc(-c2ccccn2)o1
100000	> 200000	6.5	–	–	O=C(CCCCCCc1ccc([N+](=O)[O-])cc1)c1ncc(-c2ccccn2)o1
125	> 2500	2.8	–	–	Cc1ccc(CCCCCCC(=O)c2ncc(-c3ccccn3)o2)cc1
25000	> 250000	1.9	–	–	COC(=O)c1cccc(CCCCCCC(=O)c2ncc(-c3ccccn3)o2)c1
70	> 14000	0.9	1.2	–	O=C(CCCCCCc1cccc(Cl)c1Cl)c1ncc(-c2ccccn2)o1
50	> 5000	32	–	–	O=C(CCCCCCc1cccnc1)c1ncc(-c2ccccn2)o1
34	> 58	60	–	–	O=C(COCCCCc1ccccc1)c1ncc(-c2ccccn2)o1
250	> 50000	–	–	–	O=C(CCCCCCc1cccc(Cl)c1)c1ncc(-c2ccccn2)o1
750	> 25000	3	–	–	Nc1ccc(CCCCCCC(=O)c2ncc(-c3ccccn3)o2)cc1
50	> 5000	2.5	–	–	COc1cccc(CCCCCCC(=O)c2ncc(-c3ccccn3)o2)c1
30	> 50000	–	–	–	O=C(CCc1ccc(Sc2ccccc2)cc1)c1ncc(-c2ccccn2)o1
27	> 3300	5.1	–	–	O=C(CCCCCCc1ccsc1)c1ncc(-c2ccccn2)o1
20	> 10000	4	–	–	O=C(CCCCCCc1ccc(C(F)(F)F)cc1)c1ncc(-c2ccccn2)o1
17	> 3300	1.7	–	–	O=C(CCCCCCc1ccccc1F)c1ncc(-c2ccccn2)o1
170	> 3300	3.3	–	–	Cc1cccc(CCCCCCC(=O)c2ncc(-c3ccccn3)o2)c1
250	–	15	–	> 1250	CCCCCCc1cccc(CCCCCCC(=O)c2ncc(-c3ccccn3)o2)c1
30	> 10000	–	–	–	O=C(CCCCCCc1cccc2ccccc12)c1ncc(-c2ccccn2)o1

Ratio IC50 [1]	Ratio IC50 [2]	Ki [3] [nM]	Ki [4] [nM]	Selectivity ratio [2]	Structure (SMILES)
25000	> 400000	1.5	–	–	COC(=O)c1ccc(CCCCCCC(=O)c2ncc(-c3ccccn3)o2)cc1
67	> 3300	2.7	–	–	O=C(CCCCCCc1ccc(Cl)cc1)c1ncc(-c2ccccn2)o1
100	> 3300	3	–	–	Cc1ccccc1CCCCCCC(=O)c1ncc(-c2ccccn2)o1
1000	> 50000	–	–	–	O=C(CCc1ccc(COc2ccccc2)cc1)c1ncc(-c2ccccn2)o1
35	> 5000	4.3	–	–	O=C(CCCCCCc1cccs1)c1ncc(-c2ccccn2)o1
0.5	> 2500	11	–	–	O=C(CCCCCCc1ccc2ccccc2c1)c1ncc(-c2ccccn2)o1
30	> 5000	1.9	–	–	O=C(CCCCCCc1ccccc1Cl)c1ncc(-c2ccccn2)o1
10	> 5000	1	–	–	O=C(CCCCCCc1cccc(C(F)(F)F)c1)c1ncc(-c2ccccn2)o1
120	> 20000	–	–	–	O=C(CCc1ccc(Nc2ccccc2)cc1)c1ncc(-c2ccccn2)o1
250	–	6.2	–	> 5000	COc1ccc(CCCCCCC(=O)c2ncc(-c3ccccn3)o2)cc1
1000	> 25000	1.3	–	–	CS(=O)(=O)c1cccc(CCCCCCC(=O)c2ncc(-c3ccccn3)o2)c1
8000	> 100000	–	–	–	O=C(CCc1ccc(OCc2ccccc2)cc1)c1ncc(-c2ccccn2)o1
33	> 3300	120	–	–	O=C(CCCCCCc1ccccn1)c1ncc(-c2ccccn2)o1
–	–	> 600	–	–	O=C(O)c1cccc(CCCCCCC(=O)c2ncc(-c3ccccn3)o2)c1
–	–	25	–	–	O=C(CCCCC#Cc1ccccc1)c1ncc(-c2ccccn2)o1
–	–	4	–	–	O=C(CSCCCCc1ccccc1)c1ncc(-c2ccccn2)o1
50	> 5000	3.2	–	–	O=C(CCCCCCc1ccc(F)cc1)c1ncc(-c2ccccn2)o1
300	> 33000	–	–	–	O=C(CCc1ccc(Cc2ccccc2)cc1)c1ncc(-c2ccccn2)o1
–	–	2500	–	–	O=C(c1ncc(-c2ccccn2)o1)C1CCCC1

Ratio IC50 [1]	Ratio IC50 [2]	Ki [3] [nM]	Ki [4] [nM]	Selectivity ratio [2]	Structure (SMILES)
–	–	5.6	–	–	CC(C)(C)OC(=O)Nc1ccc(CCCCCCC(=O)c2ncc(-c3ccccn3)o2)cc1
–	–	> 50000	–	–	O=C(c1ncc(-c2ccccn2)o1)C1CC1
40	> 2000	19	–	–	CS(=O)(=O)c1ccc(CCCCCCC(=O)c2ncc(-c3ccccn3)o2)cc1
300	> 3300	3.3	–	–	CSc1ccccc1CCCCCCC(=O)c1ncc(-c2ccccn2)o1
30	> 1000	37	–	–	CS(=O)(=O)c1ccccc1CCCCCCC(=O)c1ncc(-c2ccccn2)o1
–	–	> 100000	–	–	CN(CCCCc1ccccc1)CC(O)c1ncc(-c2ccccn2)o1 (centres undefined)
–	–	30	–	–	Nc1cccc(CCCCCCC(=O)c2ncc(-c3ccccn3)o2)c1
1000	> 3300	6.7	–	–	CCCCCCc1ccc(CCCCCCC(=O)c2ncc(-c3ccccn3)o2)cc1
–	–	20000	–	–	O=C(CS(=O)(=O)CCCCc1ccccc1)c1ncc(-c2ccccn2)o1
–	–	> 600	–	–	O=C(CCCCCCc1ccccc1C(=O)O)c1ncc(-c2ccccn2)o1
40	> 5000	2.5	–	–	CSc1ccc(CCCCCCC(=O)c2ncc(-c3ccccn3)o2)cc1
–	–	280	–	–	O=C(CCCCC#Cc1ccccn1)c1ncc(-c2ccccn2)o1
500	> 10000	5.8	–	–	COc1ccccc1CCCCCCC(=O)c1ncc(-c2ccccn2)o1
100	> 10000	2.2	–	–	O=C(CCCCCCc1cccc(F)c1)c1ncc(-c2ccccn2)o1
20	> 1000	–	–	–	O=C(CCc1cccc(OCc2ccccc2)c1)c1ncc(-c2ccccn2)o1
30	> 10000	4.2	–	–	CSc1cccc(CCCCCCC(=O)c2ncc(-c3ccccn3)o2)c1
–	–	3.2	–	–	O=C(CCCCC#Cc1cccc(F)c1)c1ncc(-c2ccccn2)o1
–	–	12	–	–	CC(C)(C)OC(=O)Nc1cccc(C#CCCCCC(=O)c2ncc(-c3ccccn3)o2)c1
